We go through 27 molecules from patent US10144737B2 (ETERNITY BIOSCIENCE INC., priority 2014, dated 2018).

The target of one test is T1, Btk (Homo sapiens, UniProt Q06187).
T1 construct: purchased Promega (Madison, Wis.)
Kind of test: Btk kinase assay (ADP-Glo). In kind it is biochemical. Conditions: ADP-Glo Btk kinase assay kit; ATP 1.2 μM; 60 minutes at room temperature. In short, it runs like this:
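Luminescent ADP detection after a 60 min reaction at 22±1 °C containing Btk 2 ng/μl, 1.2 μM ATP, 0.3 μM poly GT peptide and 1.4 mM MnCl2. IC50 from log concentration versus percent inhibition relative to DMSO vehicle.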
For orientation: ADP-Glo turns the ADP formed in a reaction into a luminescent signal.

The subject of another test is TMD-8 cells. Kind of test: Cell proliferation assay (CellTiter-Glo), TMD-8 cells. Conditions: Homo sapiens, TMD8, 120 h, 5-day treatment, read-out: TMD8 cell growth (GI50 μM). In kind it is cell-based. Summed up:
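TMD-8 cells seeded at 5,000–10,000/well, cultured overnight, then exposed to compound (vehicle 0.5% DMSO) for 5 days at 37 °C. Growth read by CellTiter-Glo luminescence; IC50 from log concentration versus % growth inhibition relative to vehicle.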
In general terms: Cellular ATP, detected with luciferase, serves as a proxy for viable cell number.

What is called IC50 is the concentration needed to halve the response being measured. The GI50 is the concentration giving 50% growth inhibition.

SMILES strings stand for the structures.

T1 sequence (Q06187 whole entry): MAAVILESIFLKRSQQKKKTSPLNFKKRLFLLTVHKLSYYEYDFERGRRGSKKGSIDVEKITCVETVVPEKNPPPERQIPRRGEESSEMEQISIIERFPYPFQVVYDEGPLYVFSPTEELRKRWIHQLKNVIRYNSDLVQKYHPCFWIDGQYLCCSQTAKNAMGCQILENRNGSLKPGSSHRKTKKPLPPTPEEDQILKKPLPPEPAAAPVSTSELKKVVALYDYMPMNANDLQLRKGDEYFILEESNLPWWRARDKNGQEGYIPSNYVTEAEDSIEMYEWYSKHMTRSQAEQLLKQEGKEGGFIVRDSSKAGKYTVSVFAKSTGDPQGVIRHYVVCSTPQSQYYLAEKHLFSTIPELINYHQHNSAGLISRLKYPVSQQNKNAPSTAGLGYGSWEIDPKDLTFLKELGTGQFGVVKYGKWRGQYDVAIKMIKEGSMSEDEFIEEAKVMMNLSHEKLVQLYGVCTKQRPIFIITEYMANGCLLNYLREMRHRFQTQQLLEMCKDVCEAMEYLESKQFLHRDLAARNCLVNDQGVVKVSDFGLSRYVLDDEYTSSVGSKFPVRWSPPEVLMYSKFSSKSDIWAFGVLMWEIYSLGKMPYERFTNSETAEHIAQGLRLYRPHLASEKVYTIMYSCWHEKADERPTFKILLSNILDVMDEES

In turn, `C=CC(=O)N1CC[C@@H](Nc2ncnc3[nH]c(C#Cc4ccc5ncccc5c4)cc23)C1` [Example 77, (R)-1-(3-((6-(quinolin-6-ylethynyl)-7H-pyrrolo[2,3-d]pyrimidin-4-yl)amino)pyrrolidin-1-yl)prop-2-en-1-one] gave an IC50 at Btk of 0.145 µM. Moreover, in the test on TMD-8 cells, the GI50 amounted to 0.526 µM.

For the molecule `C=CC(=O)N1CC[C@@H](Nc2ncnc3[nH]c(C#CC4CCCCC4)cc23)C1` [Example 78, (R)-1-(3-((6-(cyclohexylethynyl)-7H-pyrrolo[2,3-d]pyrimidin-4-yl)amino)pyrrolidin-1-yl)prop-2-en-1-one], the IC50 against Btk was determined as 0.702 µM. In addition, the GI50 with TMD-8 cells is 2.68 µM.

Molecule `C=CC(=O)N1CC[C@@H](Nc2ncnc3[nH]c(C#Cc4ccoc4)cc23)C1` [Example 79, (R)-1-(3-((6-(furan-3-ylethynyl)-7H-pyrrolo[2,3-d]pyrimidin-4-yl)amino)pyrrolidin-1-yl)prop-2-en-1-one] displayed an IC50 against Btk of 0.002 µM. In addition, the GI50 in the test on TMD-8 cells was determined as 0.031 µM.

Regarding `C=CC(=O)N1CC[C@@H](Nc2ncnc3[nH]c(C#Cc4cnn(C)c4)cc23)C1` [Example 80, (R)-1-(3-((6-((1-methyl-1H-pyrazol-4-yl)ethynyl)-7H-pyrrolo[2,3-d]pyrimidin-4-yl)amino)pyrrolidin-1-yl)prop-2-en-1-one], on Btk, half-maximal inhibition (IC50) required 0.255 µM. The concentration for 50% growth inhibition (GI50) in the test with TMD-8 cells was 0.51 µM.

In turn, `C=CC(=O)N1CC[C@@H](Nc2ncnc3[nH]c(C#CCOc4ccccc4OC(F)(F)F)cc23)C1` [Example 81, (R)-1-(3-((6-(3-(2-(trifluoromethoxy)phenoxy)prop-1-yn-1-yl)-7H-pyrrolo[2,3-d]pyrimidin-4-yl)amino)pyrrolidin-1-yl)prop-2-en-1-one] registered an IC50 at Btk of 0.033 µM. In the test on TMD-8 cells, the GI50 was determined as 0.003 µM.

Molecule `C=CC(=O)N1CC[C@@H](Nc2ncnc3[nH]c(C#CCOc4ccccc4C#N)cc23)C1` [Example 82, (R)-1-(3-((6-(3-(2-cyanophenoxy)prop-1-yn-1-yl)-7H-pyrrolo[2,3-d]pyrimidin-4-yl)amino)pyrrolidin-1-yl)prop-2-en-1-one] displayed an IC50 against Btk of 0.038 µM. In addition, the GI50 in the test on TMD-8 cells was 0.0045 µM.

Consider `C=CC(=O)N1CC[C@@H](Nc2ncnc3[nH]c(C#CCOc4cccc5c4OCO5)cc23)C1` [Example 83, (R)-1-(3-((6-(3-(benzo[d][1,3]dioxol-4-yloxy)prop-1-yn-1-yl)-7H-pyrrolo[2,3-d]pyrimidin-4-yl)amino)pyrrolidin-1-yl)prop-2-en-1-one], for which the IC50 on Btk was found to be 0.008 µM. For the same molecule, the 50% growth inhibitory concentration (GI50) in the test with TMD-8 cells turned out to be 0.0017 µM.

`C=CC(=O)N1CC[C@@H](Nc2ncnc3[nH]c(C#CCOC4CCCCO4)cc23)C1` (stereo partly drawn) [Example 84, 1-((3R)-3-((6-(3-((tetrahydro-2H-pyran-2-yl)oxy)prop-1-yn-1-yl)-7H-pyrrolo[2,3-d]pyrimidin-4-yl)amino)pyrrolidin-1-yl)prop-2-en-1-one] gave an IC50 on Btk of 0.136 µM. Besides, in the test on TMD-8 cells, the GI50 was determined as 1.09 µM.

On Btk, `C#CC(=O)N1CC[C@@H](Nc2ncnc3[nH]c(C#CCOc4ccccc4F)cc23)C1` [Example 85, (R)-1-(3-((6-(3-(2-fluorophenoxy)prop-1-yn-1-yl)-7H-pyrrolo[2,3-d]pyrimidin-4-yl)amino)pyrrolidin-1-yl)prop-2-yn-1-one] showed a half-maximal inhibitory concentration (IC50) of 0.007 µM. For the same molecule, the GI50 with TMD-8 cells came to 0.091 µM.

On to `C=CC(=O)N1CC[C@@H](Nc2ncnc3[nH]c(C#CCn4ncc5ccccc54)cc23)C1` [Example 86, (R)-1-(3-((6-(3-(1H-indazol-1-yl)prop-1-yn-1-yl)-7H-pyrrolo[2,3-d]pyrimidin-4-yl)amino)pyrrolidin-1-yl)prop-2-en-1-one], for which the concentration for half-maximal inhibition (IC50) on Btk was 0.018 µM. Also, the GI50 in the test with TMD-8 cells was determined as 0.018 µM.

On Btk, `C=CC(=O)N1CC[C@@H](Nc2ncnc3[nH]c(C#CCOc4ccccc4C(F)(F)F)cc23)C1` [Example 87, (R)-1-(3-((6-(3-(2-(trifluoromethyl)phenoxy)prop-1-yn-1-yl)-7H-pyrrolo[2,3-d]pyrimidin-4-yl)amino)pyrrolidin-1-yl)prop-2-en-1-one] gave a concentration for half-maximal inhibition (IC50) of 0.043 µM. In addition, the GI50 in the test with TMD-8 cells stood at 0.002 µM.

Molecule `C=CC(=O)N1CC[C@@H](Nc2ncnc3[nH]c(C#CCOc4c(F)cccc4OC)cc23)C1` [Example 88, (R)-1-(3-((6-(3-(2-fluoro-6-methoxyphenoxy)prop-1-yn-1-yl)-7H-pyrrolo[2,3-d]pyrimidin-4-yl)amino)pyrrolidin-1-yl)prop-2-en-1-one] showed an IC50 at Btk of 0.018 µM. The GI50 in the test with TMD-8 cells is 0.02 µM.

Molecule `C=CC(=O)N1CC[C@@H](Nc2ncnc3[nH]c(C#CCOc4cccc5sccc45)cc23)C1` [Example 89, (R)-1-(3-((6-(3-(benzo[b]thiophen-4-yloxy)prop-1-yn-1-yl)-7H-pyrrolo[2,3-d]pyrimidin-4-yl)amino)pyrrolidin-1-yl)prop-2-en-1-one] came in with an IC50 at Btk of 0.148 µM. Further, the 50% growth inhibitory concentration (GI50) with TMD-8 cells worked out at 0.006 µM.

At Btk, `C=CC(=O)N1CC[C@@H](Nc2ncnc3[nH]c(C#CCOc4c(F)cccc4F)cc23)C1` [Example 90, (R)-1-(3-((6-(3-(2,6-difluorophenoxy)prop-1-yn-1-yl)-7H-pyrrolo[2,3-d]pyrimidin-4-yl)amino)pyrrolidin-1-yl)prop-2-en-1-one] gave an IC50 of 0.014 µM. For the same molecule, in the test on TMD-8 cells, the GI50 amounted to 0.014 µM.

`C=CC(=O)N1CC[C@@H](Nc2ncnc3[nH]c(C#CCOc4cccc(F)c4F)cc23)C1` [Example 91, (R)-1-(3-((6-(3-(2,3-difluorophenoxy)prop-1-yn-1-yl)-7H-pyrrolo[2,3-d]pyrimidin-4-yl)amino)pyrrolidin-1-yl)prop-2-en-1-one] showed an IC50 at Btk of 0.008 µM. Further, in the test with TMD-8 cells, the GI50 was 0.0015 µM.

Molecule `C=CC(=O)N1CC[C@@H](Nc2ncnc3[nH]c(C#CCOc4cc(F)ccc4F)cc23)C1` [Example 92, (R)-1-(3-((6-(3-(2,5-difluorophenoxy)prop-1-yn-1-yl)-7H-pyrrolo[2,3-d]pyrimidin-4-yl)amino)pyrrolidin-1-yl)prop-2-en-1-one] registered an IC50 against Btk of 0.043 µM. For the same molecule, in the test with TMD-8 cells, the GI50 came to 0.0038 µM.

The molecule `O=C(C1CC1)N1CC[C@@H](Nc2ncnc3[nH]c(C#CCOc4ccccc4F)cc23)C1` [Example 93, (R)-cyclopropyl(3-((6-(3-(2-fluorophenoxy)prop-1-yn-1-yl)-7H-pyrrolo[2,3-d]pyrimidin-4-yl)amino)pyrrolidin-1-yl)methanone] registered an IC50 at Btk of 0.578 µM. In the test on TMD-8 cells, the concentration for 50% growth inhibition (GI50) stood at 4.2 µM.

As to `O=C([C@H]1C[C@H]1F)N1CC[C@@H](Nc2ncnc3[nH]c(C#CCOc4ccccc4F)cc23)C1` [Example 94, ((1R,2R)-2-fluorocyclopropyl)((R)-3-((6-(3-(2-fluorophenoxy)prop-1-yn-1-yl)-7H-pyrrolo[2,3-d]pyrimidin-4-yl)amino)pyrrolidin-1-yl)methanone], at Btk, the IC50 is 0.346 µM. Also, in the test with TMD-8 cells, the GI50 amounted to 3.58 µM.

`C=CC(=O)N1CCC[C@@H](Nc2ncnc3[nH]c(C#Cc4ccccc4)cc23)C1` [Example 96, (R)-1-(3-((6-(phenylethynyl)-7H-pyrrolo[2,3-d]pyrimidin-4-yl)amino)piperidin-1-yl)prop-2-en-1-one] yielded an IC50 against Btk of 0.014 µM. Moreover, the GI50 in the test on TMD-8 cells stood at 0.066 µM.

In turn, `C=CC(=O)N1CCC[C@@H](Nc2ncnc3[nH]c(C#Cc4ccc5c(c4)OCO5)cc23)C1` [Example 97, (R)-1-(3-((6-(benzo[d][1,3]dioxol-5-ylethynyl)-7H-pyrrolo[2,3-d]pyrimidin-4-yl)amino)piperidin-1-yl)prop-2-en-1-one] registered an IC50 against Btk of 0.027 µM. Also, the concentration for 50% growth inhibition (GI50) in the test on TMD-8 cells was determined as 0.004 µM.

With `C=CC(=O)N1CC[C@@H](Nc2ncnc3[nH]c(C#CCOc4c(F)cccc4F)nc23)C1` [Example 98, (R)-1-(3-((8-(3-(2,6-difluorophenoxy)prop-1-yn-1-yl)-9H-purin-6-yl)amino)pyrrolidin-1-yl)prop-2-en-1-one], the IC50 at Btk was 0.006 µM. For the same molecule, in the test on TMD-8 cells, the GI50 is 0.005 µM.

Regarding `C=CC(=O)N1CC[C@@H](Nc2ncnc3[nH]c(C#CCOc4cccc(F)c4F)nc23)C1` [Example 99, (R)-1-(3-((8-(3-(2,3-difluorophenoxy)prop-1-yn-1-yl)-9H-purin-6-yl)amino)pyrrolidin-1-yl)prop-2-en-1-one], at Btk, the IC50 stood at 0.0003 µM. Further, the GI50 in the test with TMD-8 cells came to 0.001 µM.

With `C=CC(=O)N1CC[C@@H](Nc2ncnc3[nH]c(C#CCOc4cccc(F)c4Cl)nc23)C1` [Example 100, (R)-1-(3-((8-(3-(2-chloro-3-fluorophenoxy)prop-1-yn-1-yl)-9H-purin-6-yl)amino)pyrrolidin-1-yl)prop-2-en-1-one], the IC50 against Btk turned out to be 0.032 µM. Further, the GI50 in the test on TMD-8 cells is 0.006 µM.

Turning to `C=CC(=O)N1CC[C@@H](Nc2ncnc3[nH]c(C#CCOc4ccccc4F)nc23)C1` [Example 101, (R)-1-(3-((8-(3-(2-fluorophenoxy)prop-1-yn-1-yl)-9H-purin-6-yl)amino)pyrrolidin-1-yl)prop-2-en-1-one], on Btk, half-maximal inhibition (IC50) required 0.001 µM. Further, the GI50 with TMD-8 cells came out at 0.003 µM.

As to `C=CC(=O)N1CC[C@@H](Nc2ncnc3[nH]c(C#CCOc4ccccc4OC)nc23)C1` [Example 102, (R)-1-(3-((8-(3-(2-methoxyphenoxy)prop-1-yn-1-yl)-9H-purin-6-yl)amino)pyrrolidin-1-yl)prop-2-en-1-one], the midpoint of inhibition at Btk, the IC50, lay at 0.0002 µM. The GI50 in the test with TMD-8 cells turned out to be 0.004 µM.

Molecule `C=CC(=O)Nc1cccc(Nc2ncnc3[nH]c(C#Cc4ccccc4)cc23)c1` [Example 103, N-(3-((6-(phenylethynyl)-7H-pyrrolo[2,3-d]pyrimidin-4-yl)amino)phenyl)acrylamide] showed an IC50 at Btk of 0.0003 µM. For the same molecule, the GI50 in the test on TMD-8 cells amounted to 0.079 µM.

As for `C=CC(=O)Nc1cccc(Nc2ncnc3[nH]c(C#Cc4ccsc4)cc23)c1` [Example 104, N-(3-((6-(thiophen-3-ylethynyl)-7H-pyrrolo[2,3-d]pyrimidin-4-yl)amino)phenyl)acrylamide], at Btk, the IC50 is 0.006 µM. The GI50 with TMD-8 cells is 0.017 µM.
